Measurements from publication PMC11063076, “Structural investigation of Trypanosoma cruzi Akt-like kinase as drug target against Chagas disease” (Scientific Reports, 2024).

Target: T1, TcAkt (T. cruzi Akt-like kinase), PH domain (Trypanosoma cruzi, UniProt Q4D6D3)
T1 construct: gene Tc00.1047053509047.110; TcAkt-PH (aa 1–105), C-terminal 6xHis-tag
Test: NMR 1H-15N HSQC chemical shift perturbation titration; hetNOE
Assay type: binding

T1 sequence (Q4D6D3 entry or part of it): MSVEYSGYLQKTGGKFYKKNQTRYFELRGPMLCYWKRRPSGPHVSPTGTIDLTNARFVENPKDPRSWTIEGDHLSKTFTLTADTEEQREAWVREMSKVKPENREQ

## O=P(O)(O)O[C@H]1[C@H](O)[C@@H](OP(=O)(O)O)[C@H](OP(=O)(O)O)[C@@H](OP(=O)(O)O)[C@H]1O [Ins(1,3,4,5)P4]
  Kd: 40 ± 14 µM
